The values that follow come from patent publication US20080199858A1, “Method for Detecting Estrogen-Like Chemicals by Plant” (priority 2004, published 2008).

Where only a bound is given, the exact number is not on record here.

This assay deals with T1, chimeric estrogen receptor containing hERαLBD and LexA DBD (Homo sapiens, UniProt P03372).
T1 construct: expressed in transfected cells; host or cells: transgenic Arabidopsis thaliana (Columbia), Agrobacterium C58-mediated transformation, CaMV 35S promoter
The format is in vivo. To be noted: T2 seeds on MS agar medium, grown for a week; FIG. 6.

T1 sequence (P0A7C2 1-87, change not shown): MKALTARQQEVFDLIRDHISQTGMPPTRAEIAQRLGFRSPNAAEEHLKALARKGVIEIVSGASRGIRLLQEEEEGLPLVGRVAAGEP
T1 sequence (P03372 311-547, change not shown): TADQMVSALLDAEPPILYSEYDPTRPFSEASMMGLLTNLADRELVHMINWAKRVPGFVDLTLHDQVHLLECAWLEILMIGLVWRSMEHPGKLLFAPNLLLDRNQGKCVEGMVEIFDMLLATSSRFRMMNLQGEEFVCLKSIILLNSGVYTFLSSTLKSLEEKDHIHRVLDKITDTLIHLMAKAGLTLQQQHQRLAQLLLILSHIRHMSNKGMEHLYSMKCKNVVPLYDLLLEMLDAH
T1 sequence (Q15596 624-869, change not shown, further chain): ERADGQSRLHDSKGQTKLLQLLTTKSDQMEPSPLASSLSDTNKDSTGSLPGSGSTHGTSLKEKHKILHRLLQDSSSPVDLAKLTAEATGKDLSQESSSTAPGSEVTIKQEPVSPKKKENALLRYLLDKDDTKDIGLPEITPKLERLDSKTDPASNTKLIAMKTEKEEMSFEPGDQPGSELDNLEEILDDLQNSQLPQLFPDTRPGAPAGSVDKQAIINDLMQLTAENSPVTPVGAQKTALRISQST
T1 sequence (P06492 413-490, change not shown, further chain): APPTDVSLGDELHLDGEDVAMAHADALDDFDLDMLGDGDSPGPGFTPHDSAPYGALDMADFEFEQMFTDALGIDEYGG
Experimental: Seeds of T3 were sown on a MS agar medium containing 17β-estradiol (WAKO Pure Chemical Inds.). The expression of GUS gene was examined by GUS activity staining method and GUS activity assay method by the use of a transformed plant grown for a week.
The induction of reporter gene expression by estrogen in transformed Arabidopsis thaliana was performed by the following procedures. […] After that the transformed Arabidopsis thaliana was sprouted and grown in a bright place at 22° C. for specified days for the continuous exposure to estrogen.
The Gus activity assay method was performed in the following way. […] Twenty plants treated with estrogen were frozen in liquid nitrogen and were crushed into powder by a homogenizer. Then, the extraction buffer (50 mM NaH2PO4, 10 mM EDTA, 0.1% Triton-X-100, 0.1% N-sodium lauroyl sarcosinate, 10 mM β-mercaptoethanol) was added and soluble protein was extracted. 4-methylumbelliferyl-β-D-glucronide (4-MUG) was used for a substrate of GUS activity assay. The extracted protein solution was added with extraction buffer containing final 1 mM 4-MUG and was reacted at 37° C. for 1 hr. […] Also, protein concentration in the solution was measured and measured values obtained by fluorescent spectroscopy were standardized by the correction depending on the total protein in the protein solution. […]

For `CC(C)(c1ccc(O)cc1)c1ccc(O)cc1` [BPA, bisphenol A], the “concentration from which expression of GUS gene responds / increases” value is more than 100 nM and the “optimal concentration for the expression of GUS gene” value was 100 nM.
